Data reported in patent US6972296B2, “Carboxylic acid derivatives that inhibit the binding of integrins to their receptors” (Encysive Pharmaceuticals Inc., priority 1999, dated 2005).
Values belong to the compound of their own block, whether it stands above or below them.

Target: T1, α4β1 integrin (Homo sapiens, UniProt P05556+P13612)
T1 construct: endogenous in cells; host or cells: Ramos cells
Assay: Adhesion of calcein-labeled Ramos cells to CS1 (fibronectin) peptide conjugated ovalbumin
Type: cell-based
Conditions: Ramos cell adhesion to CS1 conjugated ovalbumin
In short: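 Calcein AM-labelled Ramos cells (2.5×10^5/well) with compound, up to 100 μM, added to plates coated with CS1 peptide–ovalbumin (0.5 μg/ml) and blocked with 3% BSA. Binding buffer TBS pH 7.5 with 1 mM each MgCl2, CaCl2, MnCl2; 30 min, 37 °C. After washes, adherent cells lysed and read fluorometrically; […].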

[1] = Table 7, dose required to give 50% inhibition
[2] = Table 5, dose required to give 50% inhibition

T1 sequence (P13612 34-1032): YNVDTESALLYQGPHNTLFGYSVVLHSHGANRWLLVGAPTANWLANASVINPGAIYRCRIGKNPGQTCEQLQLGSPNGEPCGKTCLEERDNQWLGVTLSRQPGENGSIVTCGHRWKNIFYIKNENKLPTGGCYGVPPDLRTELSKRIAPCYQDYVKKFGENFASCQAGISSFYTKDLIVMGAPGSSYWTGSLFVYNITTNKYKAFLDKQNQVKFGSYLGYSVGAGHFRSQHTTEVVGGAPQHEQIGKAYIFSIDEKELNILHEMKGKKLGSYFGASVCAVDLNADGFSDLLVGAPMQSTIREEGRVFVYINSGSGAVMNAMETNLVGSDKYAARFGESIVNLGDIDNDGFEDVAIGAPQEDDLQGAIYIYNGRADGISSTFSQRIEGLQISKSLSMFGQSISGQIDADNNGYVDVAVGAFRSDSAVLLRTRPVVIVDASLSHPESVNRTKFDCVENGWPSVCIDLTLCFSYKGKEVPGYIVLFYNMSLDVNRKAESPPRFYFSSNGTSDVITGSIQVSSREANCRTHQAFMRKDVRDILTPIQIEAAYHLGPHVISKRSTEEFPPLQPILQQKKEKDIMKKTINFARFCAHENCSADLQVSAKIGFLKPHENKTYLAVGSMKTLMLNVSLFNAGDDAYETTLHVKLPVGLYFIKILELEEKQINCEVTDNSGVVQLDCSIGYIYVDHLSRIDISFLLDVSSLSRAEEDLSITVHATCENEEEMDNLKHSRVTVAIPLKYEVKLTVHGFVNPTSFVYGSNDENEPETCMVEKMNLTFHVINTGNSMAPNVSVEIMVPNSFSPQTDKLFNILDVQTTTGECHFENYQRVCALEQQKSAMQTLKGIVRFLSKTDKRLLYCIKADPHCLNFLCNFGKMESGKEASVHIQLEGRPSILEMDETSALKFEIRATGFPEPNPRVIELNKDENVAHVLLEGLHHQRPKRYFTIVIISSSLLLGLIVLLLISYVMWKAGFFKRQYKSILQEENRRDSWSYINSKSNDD
T1 sequence (P05556 21-798): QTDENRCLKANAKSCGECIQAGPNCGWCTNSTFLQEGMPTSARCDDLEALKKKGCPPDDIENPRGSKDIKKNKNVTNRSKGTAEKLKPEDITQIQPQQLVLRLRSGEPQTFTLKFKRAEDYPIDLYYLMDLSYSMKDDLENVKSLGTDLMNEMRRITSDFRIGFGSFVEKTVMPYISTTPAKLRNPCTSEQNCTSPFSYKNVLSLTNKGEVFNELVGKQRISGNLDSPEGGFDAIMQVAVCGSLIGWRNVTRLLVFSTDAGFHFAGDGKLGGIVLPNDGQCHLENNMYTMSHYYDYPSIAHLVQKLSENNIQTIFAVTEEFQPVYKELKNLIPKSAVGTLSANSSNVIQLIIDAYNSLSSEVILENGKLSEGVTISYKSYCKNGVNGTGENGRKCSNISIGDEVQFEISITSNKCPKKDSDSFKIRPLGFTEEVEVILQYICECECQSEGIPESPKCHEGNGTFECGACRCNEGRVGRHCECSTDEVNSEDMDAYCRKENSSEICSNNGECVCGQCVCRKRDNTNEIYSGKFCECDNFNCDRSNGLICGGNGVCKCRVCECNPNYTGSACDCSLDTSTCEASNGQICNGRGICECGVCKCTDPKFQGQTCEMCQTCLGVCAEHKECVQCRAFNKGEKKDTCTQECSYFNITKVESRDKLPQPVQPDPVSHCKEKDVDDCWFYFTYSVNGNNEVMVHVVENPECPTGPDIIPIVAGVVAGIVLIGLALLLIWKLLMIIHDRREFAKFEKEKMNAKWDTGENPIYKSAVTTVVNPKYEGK

Compound: CCc1ccc([C@H](CC(=O)O)NC(=O)Nc2c(O)c3c(n(Cc4c(C)cccc4Cl)c2=O)CCC3)cc1
IC50 [1]: 15 nM

Compound: Cc1ccccc1-c1ccc([C@H](CC(=O)O)NC(=O)Nc2c(O)c(C)cn(Cc3ccccc3Cl)c2=O)cc1
IC50 [1]: 55 nM

Compound: COc1ccc([C@H](CC(=O)O)NC(=O)Nc2c(C)ccn(Cc3ccccc3Cl)c2=O)cc1C
IC50 (Table 3, 30 minutes at 37° C.): 15 nM

Compound: Cc1ccc([C@H](CC(=O)O)NC(=O)Nc2c(O)c(C)c(C)n(Cc3ccccc3Cl)c2=O)cc1C
IC50 (Table 6, 30 minutes at 37° C.): 40 nM

Compound: COc1cc([C@H](CC(=O)O)NC(=O)Nc2c(O)c(C)c(C)n(Cc3c(C)cccc3Cl)c2=O)ccc1C
IC50 [2]: 25 nM

Compound: Cc1cc(C)cc([C@H](CC(=O)O)NC(=O)Nc2cccn(Cc3ccccc3Cl)c2=O)c1
IC50 (Table 4, 30 minutes at 37° C.): 100 nM

Compound: Cc1ccc([C@H](CC(=O)O)NC(=O)Nc2cccn(Cc3ccc(F)cc3Cl)c2=O)cc1
IC50 (Table 4, 30 minutes at 37° C.): 350 nM

Compound: CCOc1cccc(Cl)c1Cn1cc(C)c(O)c(NC(=O)N[C@@H](CC(=O)O)c2cccc(OC(F)(F)F)c2)c1=O [(3S)-3-[({[1-(2-chloro-6-ethoxybenzyl)-4-hydroxy-5-methyl-2-oxo-1,2-dihydropyridin-3-yl]amino}carbonyl)amino]-3-[3-(trifluoromethoxy)phenyl]propanoic acid]
IC50 [1]: 4 nM

Compound: CCOc1ccc2cc([C@H](CC(=O)O)NC(=O)Nc3c(O)c4c(n(Cc5ccccc5Cl)c3=O)CCC4)ccc2c1
IC50 [1]: 15 nM

Compound: Cc1cc(C(CC(=O)O)NC(=O)Nc2c(O)ccn(Cc3ccccc3Cl)c2=O)oc1C (centres unmarked)
IC50 (Table 6, 30 minutes at 37° C.): 115 nM

Compound: Cc1ccc([C@H](CC(=O)O)NC(=O)Nc2c(NC(=O)C(C)(C)C)ccn(Cc3ccccc3Cl)c2=O)cc1 [(3S)-3-{[({1-(2-chlorobenzyl)-4-[(2,2-dimethylpropanoyl)amino]-2-oxo-1,2-dihydropyridin-3-yl}amino)carbonyl]amino}-3-(4-methylphenyl)propanoic acid]
IC50 [2]: 10 nM

Compound: Cc1cccc(Cl)c1Cn1c2c(c(O)c(NC(=O)N[C@@H](CC(=O)O)c3cccc(N(C)S(C)(=O)=O)c3)c1=O)CCC2 [(3S)-3-{[({1-[(2-chloro-6-methylphenyl)methyl]-4-hydroxy-2-oxo-2,5,6,7-tetrahydro-1H-cyclopenta[b]pyridin-3-yl}amino)carbonyl]amino}-3-{3-[methyl(methylsulfonyl)amino]phenyl}propanoic acid]
IC50 [1]: 1.3 nM

Compound: Cc1ccc([C@H](CC(=O)O)NC(=O)Nc2cccn(Cc3c(Cl)cccc3Cl)c2=O)cc1
IC50 (Table 4, 30 minutes at 37° C.): 200 nM

Compound: O=C(O)C[C@H](NC(=O)N[C@@H]1CCCN(Cc2cccs2)C1=O)c1ccc2c(c1)OCO2
IC50 (Table 2, 30 minutes at 37° C.): 2000 nM

Compound: Cc1ccc([C@H](CC(=O)O)NC(=O)Nc2cccn(Cc3ccccc3C)c2=O)cc1
IC50 (Table 4, 30 minutes at 37° C.): 100 nM

Compound: Cc1cccc(-c2cccc([C@H](CC(=O)O)NC(=O)Nc3c(O)c(C)cn(Cc4ccccc4Cl)c3=O)c2)c1
IC50 [1]: 18 nM

Compound: COc1ccc([C@H](CC(=O)O)NC(=O)Nc2cccn(Cc3ccccc3Br)c2=O)cc1C
IC50 (Table 4, 30 minutes at 37° C.): 200 nM

Compound: CCCOc1cccc(Cl)c1Cn1cc(C)c(O)c(NC(=O)N[C@@H](CC(=O)O)c2ccc(C)cc2)c1=O
IC50 [1]: 10 nM

Compound: COCCOCCOCCOc1ccn(Cc2ccccc2Cl)c(=O)c1NC(=O)N[C@@H](CC(=O)O)c1ccc(C)cc1
IC50 (Table 3, 30 minutes at 37° C.): 2 nM

Compound: CCCc1cn(Cc2ccccc2Cl)c(=O)c(NC(=O)N[C@@H](CC(=O)O)c2ccc(C)cc2)c1O [(3S)-3-[({[1-(2-chlorobenzyl)-4-hydroxy-2-oxo-5-propyl-1,2-dihydropyridin-3-yl]amino}carbonyl)amino]-3-(4-methylphenyl)propanoic acid]
IC50 [2]: 20 nM

Compound: COc1cc([C@H](CC(=O)O)NC(=O)Nc2c(O)c(C)cn(Cc3c(C)cccc3Cl)c2=O)ccc1C
IC50 (Table 6, 30 minutes at 37° C.): 25 nM

Compound: CCOc1cccc(Cl)c1Cn1c(C)c(C)c(O)c(NC(=O)N[C@@H](CC(=O)O)c2ccccc2)c1=O
IC50 [1]: 4 nM

Compound: CCOc1cccc([C@H](CC(=O)O)NC(=O)Nc2c(O)c(C)cn(Cc3ccccc3Cl)c2=O)c1 [(3S)-3-[({[1-(2-chlorobenzyl)-4-hydroxy-5-methyl-2-oxo-1,2-dihydropyridin-3-yl]amino}carbonyl)amino]-3-(3-ethoxyphenyl)propanoic acid]
IC50 [2]: 2 nM

Compound: O=C(O)CC(NC(=O)Nc1cccn(Cc2ccccc2Cl)c1=O)c1cccc(Cl)c1 (centres unmarked)
IC50 (Table 4, 30 minutes at 37° C.): 1000 nM

Compound: Cc1cn(Cc2ccccc2Cl)c(=O)c(NC(=O)N[C@@H](CC(=O)O)c2cccc(C(F)F)c2)c1O [(3S)-3-{[({1-[(2-chlorophenyl)methyl]-4-hydroxy-5-methyl-2-oxo-1,2-dihydro-3-pyridinyl}amino)carbonyl]amino}-3-[3-(difluoromethyl)phenyl]propanoic acid]
IC50 [1]: 20 nM

Compound: CCN(c1cccc([C@H](CC(=O)O)NC(=O)Nc2c(O)c3c(n(Cc4ccccc4Cl)c2=O)CCC3)c1)S(C)(=O)=O [(3S)-3-{[({1-[(2-chlorophenyl)methyl]-4-hydroxy-2-oxo-2,5,6,7-tetrahydro-1H-cyclopenta[b]pyridin-3-yl}amino)carbonyl]amino}-3-{3-[ethyl(methylsulfonyl)amino]phenyl}propanoic acid]
IC50 [1]: 1 nM

Compound: COc1ccc([C@H](CC(=O)O)NC(=O)Nc2c(O)ccn(Cc3ccccc3Cl)c2=O)cc1C [(3S)-3-{[({1-[(2-chlorophenyl)methyl]-4-hydroxy-2-oxo-1,2-dihydro-3-pyridinyl}amino)carbonyl]amino}-3-[3-methyl-4-(methyloxy)phenyl]propanoic acid]
IC50 (Table 3, 30 minutes at 37° C.): 8 nM

Further lines, results first:

IC50 [2]: 80 nM
Compound: Cc1ccccc1C[C@H](CC(=O)O)NC(=O)Nc1c(O)ccn(Cc2ccccc2Cl)c1=O

IC50 [2]: 5 nM
Compound: Cc1ccc([C@H](CC(=O)O)NC(=O)Nc2c(O)ccn(Cc3ccccc3Cl)c2=O)cc1C [(3S)-3-[({[1-(2-chlorobenzyl)-4-hydroxy-2-oxo-1,2-dihydropyridin-3-yl]amino}carbonyl)amino]-3-(3,4-dimethylphenyl)propanoic acid]

IC50 [1]: 14 nM
Compound: CCOc1cccc([C@H](CC(=O)O)NC(=O)Nc2c(O)c(C)cn(Cc3c(Cl)cccc3OCC(C)C)c2=O)c1

IC50 [1]: 10 nM
Compound: Cc1cn(Cc2ccccc2Cl)c(=O)c(NC(=O)NC(CC(=O)O)c2cccc(N3CCCC3)c2)c1O (centres unmarked)

IC50 (Table 3, 30 minutes at 37° C.): 20 nM
Compound: Cc1ccc([C@H](CC(=O)O)NC(=O)Nc2c(C)ccn(Cc3c(Cl)cccc3Cl)c2=O)cc1

IC50 (Table 4, 30 minutes at 37° C.): 100 nM
Compound: COc1ccc([C@H](CC(=O)O)NC(=O)Nc2cccn(Cc3ccccc3Cl)c2=O)cc1

IC50 (Table 3, 30 minutes at 37° C.): 30 nM
Compound: O=C(O)C[C@H](NC(=O)Nc1c(O)ccn(Cc2ccccc2Cl)c1=O)c1ccc(F)cc1

IC50 (Table 3, 30 minutes at 37° C.): 10 nM
Compound: Cc1ccc([C@H](CC(=O)O)NC(=O)Nc2c(N)cc(C)n(Cc3ccccc3Cl)c2=O)cc1 [(3S)-3-{[({4-amino-1-[(2-chlorophenyl)methyl]-6-methyl-2-oxo-1,2-dihydro-3-pyridinyl}amino)carbonyl]amino}-3-(4-methylphenyl)propanoic acid]

IC50 (Table 6, 30 minutes at 37° C.): 3 nM
Compound: Cn1ccc2cc([C@H](CC(=O)O)NC(=O)Nc3c(O)ccn(Cc4ccccc4Cl)c3=O)ccc21

IC50 [1]: 157 nM
Compound: Cc1cn(Cc2ccccc2Cl)c(=O)c(NC(=O)N[C@@H](CC(=O)O)c2cccc(-c3ccccc3C(F)(F)F)c2)c1O

IC50 (Table 4, 30 minutes at 37° C.): 35 nM
Compound: Cc1ccc([C@H](CC(=O)O)NC(=O)Nc2c(O)cc(C)n(Cc3ccccc3)c2=O)cc1

IC50 [2]: 25 nM
Compound: O=C(O)C[C@H](NC(=O)Nc1c(O)ccn(Cc2ccccc2Cl)c1=O)c1ccc(F)c(C(F)(F)F)c1

IC50 (Table 6, 30 minutes at 37° C.): 15 nM
Compound: COc1ccc2cc(C(CC(=O)O)NC(=O)Nc3c(O)ccn(Cc4ccccc4Cl)c3=O)ccc2c1 (centres unmarked)

IC50 [1]: 6 nM
Compound: CCCc1cn(Cc2c(Cl)cccc2OCC)c(=O)c(NC(=O)N[C@@H](CC(=O)O)c2cccc(OCC)c2)c1O

IC50 (Table 6, 30 minutes at 37° C.): 6 nM
Compound: Cc1ccc([C@H](CC(=O)O)NC(=O)Nc2c(O)c(Cl)cn(Cc3ccccc3Cl)c2=O)cc1 [(3S)-3-[({[5-chloro-1-(2-chlorobenzyl)-4-hydroxy-2-oxo-1,2-dihydropyridin-3-yl]amino}carbonyl)amino]-3-(4-methylphenyl)propanoic acid]

IC50 [1]: 15 nM
Compound: Cc1ccc([C@H](CC(=O)O)NC(=O)Nc2c(O)c(C)cn(Cc3cc(S(=O)(=O)N4CCCC4)ccc3Cl)c2=O)cc1

IC50 (Table 3, 30 minutes at 37° C.): 10 nM
Compound: Cc1ccc([C@H](CC(=O)O)NC(=O)Nc2c(-c3ccccc3)ccn(Cc3ccccc3Cl)c2=O)cc1 [(3S)-3-{[({1-[(2-chlorophenyl)methyl]-2-oxo-4-phenyl-1,2-dihydro-3-pyridinyl}amino)carbonyl]amino}-3-(4-methylphenyl)propanoic acid]

IC50 (Table 6, 30 minutes at 37° C.): 10 nM
Compound: Cc1cn(Cc2ccccc2Cl)c(=O)c(NC(=O)N[C@@H](CC(=O)O)c2cccc(OC(F)(F)F)c2)c1O

IC50 [1]: 2 nM
Compound: CCOc1cccc([C@H](CC(=O)O)NC(=O)Nc2c(O)c3c(n(Cc4c(Cl)cccc4OCC)c2=O)CCC3)c1

IC50 (Table 2, 30 minutes at 37° C.): 20000 nM
Compound: CCCCN(C(=O)N[C@@H](CC(=O)O)c1ccc2c(c1)OCO2)c1cccn(Cc2cccs2)c1=O

IC50 (Table 2, 30 minutes at 37° C.): 200 nM
Compound: O=C(O)C[C@H](NC(=O)N[C@H]1CCCN(Cc2cccs2)C1=O)c1ccc2c(c1)OCO2 [(3S)-3-(1,3-benzodioxol-5-yl)-3-[({[(3S)-2-oxo-1-(2-thienylmethyl)hexahydro-3-pyridinyl]amino}carbonyl)amino]propanoic acid]

IC50 (Table 6, 30 minutes at 37° C.): 25 nM
Compound: Cc1ccc([C@H](CC(=O)O)NC(=O)Nc2c(O)c3ccccc3n(Cc3ccccc3Cl)c2=O)cc1C

IC50 [1]: 27 nM
Compound: Cc1ccc([C@H](CC(=O)O)NC(=O)Nc2c(O)c(C)cn(Cc3cc(S(=O)(=O)N4CCCCC4)ccc3Cl)c2=O)cc1

IC50 (Table 3, 30 minutes at 37° C.): 10 nM
Compound: Cc1ccc([C@H](CC(=O)O)NC(=O)Nc2c(C)nc(C)n(Cc3ccccc3Cl)c2=O)cc1

IC50 (Table 2, 30 minutes at 37° C.): 900 nM
Compound: O=C(O)C[C@H](NC(=O)Nc1cccn(Cc2cccs2)c1=O)c1ccc2c(c1)OCO2 [(3S)-3-(1,3-benzodioxol-5-yl)-3-[({[2-oxo-1-(2-thienylmethyl)-1,2-dihydro-3-pyridinyl]amino}carbonyl)amino]propanoic acid]

IC50 (Table 3, 30 minutes at 37° C.): 30 nM
Compound: Cc1ccc([C@H](CC(=O)O)NC(=O)Nc2c(C)ccn(Cc3ccc(Cl)cc3Cl)c2=O)cc1
